From patent US11976311B2, “Method of adjusting the pH of a pretreatment solution using carbon dioxide useful for integrating saccharification and fermentation of a biomass” (National Technology & Engineering Solutions of Sandia, LLC, priority 2014, dated 2024)
Values belong to the compound of their own block, whether it stands above or below them.

Experiments:
[1] = system: Saccharomyces cerevisiae strain BY4741; assay: Toxicity screen of ionic liquids on Saccharomyces cerevisiae strain BY4741; type: cell-based; settings: 200 mM IL, SC medium containing 0.2% glucose, pH adjusted to 7 with hydrochloric acid if necessary
Experimental: Both choline, the cation precursor and lysine, the anion precursor are essential nutrients for microbial growth, which are known to be non-toxic and biodegradable. In this study, we carried out toxicity screen of 15 typical ILs including [Ch][Lys], [Ch][OAc] and imidazolium based ILs, [[…]][OAc] on Saccharomyces cerevisiae strain BY4741 at different IL concentrations of 25 and 200 mM (FIG. 2A-2B) in SC medium containing 0.2% glucose with the pH of the IL solution adjusted to 7 using hydrochloric acid if necessary. It aims to test whether the IL, [Ch][Lys] is compatible to commercial enzymes and biofuel producing microbes. As shown in FIG. 2A-2D, the microbial growth was completely jeopardized in a concentration of 200 mM ( 4.3 wt %) for most of the ILs.

[2] = system: CTec2+HTec2 (9:1, v/v) commercial enzyme mixtures; assay: Compatibility of ILs with commercial enzyme mixtures (enzymatic hydrolysis of microcrystalline cellulose); type: biochemical; settings: pH adjusted to 4.5 with hydrochloric acid
Experimental: (§1) In another set of pretreatment, switchgrass (100 mg, dry weight) was mixed with 5, 10, and 20% [Ch][Lys]-water solutions at a 10% biomass loading in a 15 ml capped glass pressure tube and pretreated at 140° C. for 1 h. After pretreatment, CTec2+HTec2 (9:1 v/v) mixture was directly added to the pretreatment slurry at 10 mg EP per g starting biomass for saccharification at the same conditions as stated above. In addition, microcrystalline cellulose (MCC) was hydrolyzed by 30 mg/g starting biomass for CTec2+HTec2, spiked with 0-30% IL.

[3] = system: commercial enzyme mixtures (CTec2+HTec2); assay: Effect of acid-induced pH adjustment of 5% [Ch][Lys] solution on enzymatic hydrolysis of MCC; type: biochemical; settings: for relative activities of enzymes on MCC: 5% [Ch][Lys] solution, pH adjusted with the named acid
Experimental: To enable a one-pot process, the pH mis-match must be adjusted to lower the pH of pretreatment slurry to a range suitable to enzymes and microbes. We tested a series of mineral and organic acids such as hydrochloric acid, phosphoric acid, sulfuric acid, acetic acid, citric acid, lactic acid, formic acid for the pH adjustment of 5% [Ch][Lys] solution.
as §1

[4] = pH of [Ch][Lys]/water systems and CO2-based pH adjustment; type: physicochemical
Text: With the increasing of CO2 pressure from 0 to 0.1 MPa, pH values of all [Ch][Lys]-water solutions decrease sharply from pH of […] to pH of 7-9. Further increasing CO2 pressure led to further pH drop. For 20 wt % [Ch][Lys]-water solution, a pH value of 7.2 was obtained at a CO2 pressure of around 2 MPa. However, only 0.7 MPa CO2 pressure is needed to drop the pH of 10 wt % [Ch][Lys]-water solution to 7.1. While, only 0.1 MPa CO2 pressure is needed to low the pH of the 5 wt % [Ch][Lys]-water solution to around 6.9, similar to or lower than the typical pressure deployed for carbonating a can of Soda. The process is reversible by increasing temperature or bubbling N2, driving out the CO2 and restoring the pH to its original value. In addition, a small fraction of alcohol (e.g. ethylene glycol) could be introduced for further enhancing CO2 absorption efficiency if necessary.^20
All the CO2 absorption experiments were carried out at room temperature in a 25 mL stainless steel Parr reactor (Parr instrument Co., USA) equipped with a magnetic stirrer plate and CO2 cylinder (>99.9% CO2 purity). In a typical procedure, 10 mL a certain concentration of [Ch][Lys] aqueous system was added into the Parr. After being sealed, the Parr was stirred at room temperature, and the absorption pressure was held constant by a backpressure valve. After the absorption was completed, the Parr was cooled to ambient temperature, and the remaining CO2 was removed slowly. Then, the corresponding pH value of the mixture was analyzed by Orion™ 3-Star Benchtop pH Meter. To elucidate the interaction between CO2 with side amine and terminal amine groups of [Ch][Lys] in H2O, we conducted ^13C nuclear magnetic resonance (NMR) analysis of [Ch][Lys] before and after CO2 absorption. Furthermore, two-dimensional (2D) […] heteronuclear single quantum coherence (HSQC) and heteronuclear multiple bond correlation (HMBC) nuclear magnetic resonance (NMR) analysis were also carried out on [Ch][Lys] before and after CO2 absorption.

relative activity of enzymes (sugar yield from hydrolysis of microcrystalline cellulose) vs no-IL control ([2]; 5% IL): ~70%
relative activity of enzymes (sugar yield from hydrolysis of microcrystalline cellulose) vs no-IL control ([2]; 10% IL): ~50%
enzyme activity ([3]; 5% [Ch][Lys] solution without pH adjustment): very low
pH ([4]; 5 wt % [Ch][Lys]-water, 0.1 MPa CO2 pressure): around 6.9
pH ([4]; 10 wt % [Ch][Lys]-water, 0.7 MPa CO2 pressure): 7.1
pH ([4]; 20 wt % [Ch][Lys]-water, CO2 pressure around 2 MPa): 7.2
pH ([4]; [Ch][Lys] or aqueous [Ch][Lys] solution during and after pretreatment): 12-14
pH ([4]; all [Ch][Lys]-water solutions (5, 10, 20 wt %), CO2 pressure 0.1 MPa, room temperature): 7-9
Structure (SMILES): C[N+](C)(C)CCO.NCCCC[C@H](N)C(=O)[O-] [[Ch][Lys], cholinium lysinate]
microbial growth [1]: no retard of microbial growth

relative activities of enzymes on MCC [3]: outperforms the other acids
Structure (SMILES): O=C(O)CC(O)(CC(=O)O)C(=O)O [citric acid]

Structure (SMILES): Cl [hydrochloric acid]
relative activities of enzymes on MCC [3]: outperforms the other acids

Structure (SMILES): O=S(=O)(O)O [sulfuric acid]
relative activities of enzymes on MCC [3]: outperforms the other acids
